logP data for 72 compounds are collected here from patent US20110218188A1, “SUBSTITUTED (PYRIDYL)-AZINYLAMINE DERIVATIVES AS FUNGICIDES” (priority 2008, published 2011).

The data set in a line: Measurement of logP values by HPLC on reversed phase columns (EEC directive 79/831 Annex V.A8). To be noted: pH 2.7. The class given is physicochemical.
One may read the logP as the decadic logarithm of the partition coefficient of the neutral form, usually between octanol and water. Read a low logP as a more hydrophilic compound. Compound `C#CC(C)ON=C(C)c1cc(-c2ncnc(Nc3cccc(Cl)c3)n2)ccn1` (mixture of isomers) [B30] had a logP of 4.47.
The result for `CCON=C(C)c1cc(-c2ncnc(Nc3cccc(Cl)c3)n2)ccn1` (mixture of isomers) [B31] reads 4.7; that for `CC(=NOCCN(C)C)c1cc(-c2ncnc(Nc3cccc(Cl)c3)n2)ccn1` (mixture of isomers) [B32], 1.99.
`CCCC#CCON=C(C)c1cc(-c2ncnc(Nc3cccc(Cl)c3)n2)ccn1` (mixture of isomers) [B35] showed a logP of 5.16.
As for `CC(=NOCc1c(Cl)cccc1Cl)c1cc(-c2ncnc(Nc3cccc(Cl)c3)n2)ccn1` (mixture of isomers) [B39], the logP came out at 6.02.
The result for `C#CC(C)ON=C(CC)c1cc(-c2ncnc(Nc3cccc(Cl)c3)n2)ccn1` (mixture of isomers) [B42] reads 4.87; that for `CC(=NOCC(C)C)c1cc(-c2ncnc(Nc3cccc(Cl)c3)n2)ccn1` (mixture of isomers) [B44], 5.63; that for `CCC(=NOC1CCCC1)c1cc(-c2ncnc(Nc3cccc(Cl)c3)n2)ccn1` (mixture of isomers) [B47], 6.39.
As to `CCC(=NOCCN(C)C)c1cc(-c2ncnc(Nc3cccc(Cl)c3)n2)ccn1` (mixture of isomers) [B49], the logP is on record as 2.06.
`CC(=NOCc1ccccc1)c1cc(-c2ncnc(Nc3cccc(Cl)c3)n2)ccn1` (mixture of isomers) [B50] displayed a log partition coefficient (logP) of 5.18.
The result for `CC#CCON=C(CC)c1cc(-c2ncnc(Nc3cccc(Cl)c3)n2)ccn1` (mixture of isomers) [B53] reads 4.91; that for `CCC(=NOCC(F)(F)F)c1cc(-c2ncnc(Nc3cccc(Cl)c3)n2)ccn1` (mixture of isomers) [B58], 5.39; that for `COc1ccc(CON=C(C)c2cc(-c3ncnc(Nc4cccc(Cl)c4)n3)ccn2)cc1` (mixture of isomers) [B60], 4.96.
The result for `CCC(=NOCC(C)C)c1cc(-c2ncnc(Nc3cccc(Cl)c3)n2)ccn1` (mixture of isomers) [B65] reads 6.19; that for `CCC(=NOCc1ccc(OC)cc1)c1cc(-c2ncnc(Nc3cccc(Cl)c3)n2)ccn1` (mixture of isomers) [B68], 5.46; that for `CCC(=NOCc1c(Cl)cccc1Cl)c1cc(-c2ncnc(Nc3cccc(Cl)c3)n2)ccn1` (mixture of isomers) [B69], 6.53.
Take `CCC(=NOCc1ccc(Cl)cc1)c1cc(-c2ncnc(Nc3cccc(Cl)c3)n2)ccn1` (mixture of isomers) [B70]: the logP was 6.22.
Take `CCC(=NOCc1ccccc1)c1cc(-c2ncnc(Nc3cccc(Cl)c3)n2)ccn1` (mixture of isomers) [B72]: the logP is recorded as 5.65.
In turn, `CC(=NOCC(F)(F)F)c1cc(-c2ncnc(Nc3cccc(Cl)c3)n2)ccn1` (mixture of isomers) [B73] registered a lipophilicity (logP) of 4.58.
In the case of `CCC(=NOC(C1CC1)C1CC1)c1cc(-c2ncnc(Nc3cccc(Cl)c3)n2)ccn1` (mixture of isomers) [B79], the logP worked out at 6.59.
The compound `C#CCON=C(CC)c1cc(-c2ncnc(Nc3cccc(Cl)c3)n2)ccn1` (mixture of isomers) [B80] had a logP of 4.73.
The result for `CCC(=NOC(C)C1CC1)c1cc(-c2ncnc(Nc3cccc(Cl)c3)n2)ccn1` (mixture of isomers) [B84] reads 6.24; that for `C=CCON=C(C)c1cc(-c2ncnc(Nc3cccc(Cl)c3)n2)ccn1` (mixture of isomers) [Example B29], 4.7; that for `CC(=NOCC1CC1)c1cc(-c2ncnc(Nc3cccc(Cl)c3)n2)ccn1` (mixture of isomers) [Example B34], 4.94.
The result for `CC#CCON=C(C)c1cc(-c2ncnc(Nc3cccc(Cl)c3)n2)ccn1` (mixture of isomers) [Example B36] reads 4.41; that for `C#CCON=C(C)c1cc(-c2ncnc(Nc3cccc(Cl)c3)n2)ccn1` (mixture of isomers) [Example B37], 3.98; that for `CC(=NOC1CCCC1)c1cc(-c2ncnc(Nc3cccc(Cl)c3)n2)ccn1` (mixture of isomers) [Example B38], 5.79.
The value for `CCON=C(CC)c1cc(-c2ncnc(Nc3cccc(Cl)c3)n2)ccn1` (mixture of isomers) [Example B40] was 5.1.
As to `C=CCON=C(CC)c1cc(-c2ncnc(Nc3cccc(Cl)c3)n2)ccn1` (mixture of isomers) [Example B41], the logP is 5.14.
The result for `CCCON=C(C)c1cc(-c2ncnc(Nc3cccc(Cl)c3)n2)ccn1` (mixture of isomers) [Example B43] reads 5.13; that for `CCCC#CCON=C(CC)c1cc(-c2ncnc(Nc3cccc(Cl)c3)n2)ccn1` (mixture of isomers) [Example B46], 5.81; that for `CC(=NOC(C1CC1)C1CC1)c1cc(-c2ncnc(Nc3cccc(Cl)c3)n2)ccn1` (mixture of isomers) [Example B48], 5.64.
Regarding `CCC(=NOCC1CC1)c1cc(-c2ncnc(Nc3cccc(Cl)c3)n2)ccn1` (mixture of isomers) [Example B54], the logP was found to be 5.49.
The value for `CCC(=NO)c1cc(-c2ncnc(Nc3cccc(Cl)c3)n2)ccn1` (mixture of isomers) [Example B64] was 3.24.
The value for `CC(=NO)c1cc(-c2ncnc(Nc3cccc(Cl)c3)n2)ccn1` (mixture of isomers) [Example B74] was 2.8; that for `CCC(=NOC)c1cc(-c2ncnc(Nc3cccc(Cl)c3)n2)ccn1` (mixture of isomers) [Example B85] was 4.81.
`COCC(C)NC(=O)c1cc(-c2ncnc(Nc3cccc(Cl)c3)n2)ccn1` (stereo not drawn) [B51] came in with a logP of 3.21.
The value for `COC[C@H](C)NC(=O)c1cc(-c2ncnc(Nc3cccc(Cl)c3)n2)ccn1` [B52] was 3.39; that for `O=C(NC1CCCCC1)c1cc(-c2ncnc(Nc3cccc(Cl)c3)n2)ccn1` [B56] was 4.46.
On to `COCCNC(=O)c1cc(-c2ncnc(Nc3cccc(Cl)c3)n2)ccn1` [B59], for which the logP amounted to 2.84.
For the compound `CC(C)CCNC(=O)c1cc(-c2ncnc(Nc3cccc(Cl)c3)n2)ccn1` [B61], the logP is given as 4.3.
`CC(C)C(C)NC(=O)c1cc(-c2ncnc(Nc3cccc(Cl)c3)n2)ccn1` (stereo not drawn) [B62] had a logP of 4.3.
Turning to `CCC(CC)NC(=O)c1cc(-c2ncnc(Nc3cccc(Cl)c3)n2)ccn1` [B63], the logP is 4.22.
The result for `CC(CN(C)C)NC(=O)c1cc(-c2ncnc(Nc3cccc(Cl)c3)n2)ccn1` (stereo not drawn) [B66] reads 1.72.
The result for `CCCCCNC(=O)c1cc(-c2ncnc(Nc3cccc(Cl)c3)n2)ccn1` [B67] reads 4.35.
`O=C(NC1CCCC1)c1cc(-c2ncnc(Nc3cccc(Cl)c3)n2)ccn1` [B71]: the logP is listed as 4.03.
The value for `COC(=O)NN=C(C)c1cc(-c2ncnc(Nc3cccc(Cl)c3)n2)ccn1` [B83] was 2.86; that for `COCC(COC)NC(=O)c1cc(-c2ncnc(Nc3cccc(Cl)c3)n2)ccn1` [B86] was 3.39.
`COCCCNC(=O)c1cc(-c2ncnc(Nc3cccc(Cl)c3)n2)ccn1` [B88] registered a logP of 3.15.
The result for `CCC(COC)NC(=O)c1cc(-c2ncnc(Nc3cccc(Cl)c3)n2)ccn1` (stereo not drawn) [B89] reads 3.8; that for `CC(=NNc1ncc(C(F)(F)F)cc1Cl)c1cc(-c2ncnc(Nc3cccc(Cl)c3)n2)ccn1` [B90], 5.46; that for `CCNC(=O)c1cc(-c2ncnc(Nc3cccc(Cl)c3)n2)ccn1` [B92], 3.17.
`O=C(NCCCCN1CCCC1=O)c1cc(-c2ncnc(Nc3cccc(Cl)c3)n2)ccn1` [B96]: the logP is 2.73.
The value for `CC(C)(C)NC(=O)c1cc(-c2ncnc(Nc3cccc(Cl)c3)n2)ccn1` [B98] was 4.39; that for `O=C(NCC1CC1)c1cc(-c2ncnc(Nc3cccc(Cl)c3)n2)ccn1` [B99] was 3.73; that for `O=C(NCCCN1CCCC1=O)c1cc(-c2ncnc(Nc3cccc(Cl)c3)n2)ccn1` [B100] was 2.63.
`O=C(NC1CCS(=O)(=O)C1)c1cc(-c2ncnc(Nc3cccc(Cl)c3)n2)ccn1` (stereo not drawn) [B101] registered a logP of 2.66. The logP values of the last two compounds are within 0.2 log units of each other.
The result for `CCCNC(=O)c1cc(-c2ncnc(Nc3cccc(Cl)c3)n2)ccn1` [B103] reads 3.62.
`CCCC(=O)O/N=C(/N)c1cc(-c2ncnc(Nc3cccc(Cl)c3)n2)ccn1` [B106] gave a logP of 3.8. The logP values of the last two compounds are within 0.2 log units of each other.
The result for `CC(C)C(=O)O/N=C(/N)c1cc(-c2ncnc(Nc3cccc(Cl)c3)n2)ccn1` [B107] reads 3.69.
As for `CCC(=O)O/N=C(/N)c1cc(-c2ncnc(Nc3cccc(Cl)c3)n2)ccn1` [B108], the logP came to 3.33.
The value for `CC(=O)O/N=C(/N)c1cc(-c2ncnc(Nc3cccc(Cl)c3)n2)ccn1` [B109] was 2.95.
The value for `O=C(NC1COC1)c1cc(-c2ncnc(Nc3cccc(Cl)c3)n2)ccn1` [B112] was 2.6.
`O=C(NCC(F)(F)F)c1cc(-c2ncnc(Nc3cccc(Cl)c3)n2)ccn1` [B117] gave a logP of 3.67.
The value for `O=C(c1cc(-c2ncnc(Nc3cccc(Cl)c3)n2)ccn1)N1CCC(C(F)(F)F)CC1` [B120] was 3.55.
For `O=C(NCCC(F)(F)F)c1cc(-c2ncnc(Nc3cccc(Cl)c3)n2)ccn1` [B121], the logP came to 3.73.
The result for `CCN1CCCC(NC(=O)c2cc(-c3ncnc(Nc4cccc(Cl)c4)n3)ccn2)C1` (stereo not drawn) [B122] reads 1.82; that for `CC1CN(C(=O)c2cc(-c3ncnc(Nc4cccc(Cl)c4)n3)ccn2)CC(C)O1` (stereo not drawn) [B154], 2.92.
On to `O=C1CN(C(=O)c2cc(-c3ncnc(Nc4cccc(Cl)c4)n3)ccn2)CN1` [B168], for which the logP came to 2.15.
Take `CCCCCCN(CCCCCC)C(=O)c1cc(-c2ncnc(Nc3cccc(Cl)c3)n2)ccn1` [B174]: the logP is given as 6.69.
The result for `CCCCN(CCCC)C(=O)c1cc(-c2ncnc(Nc3cccc(Cl)c3)n2)ccn1` [B175] reads 4.75; that for `O=C(c1cc(-c2ncnc(Nc3cccc(Cl)c3)n2)ccn1)N1CCSCC1` [B176], 2.98.
